Data: the NIST ThermoML archive (doi:10.1021/je100715x)

Key:
[1] = xn = mol fraction of the nth substance listed; conditions: 101 kPa, Liquid; for viscosity: Capillary tube (Ostwald / Ubbelohde) method; for mass density: Vibrating tube method
[2] = refractive index (Na D-line) (dimensionless); xn = mol fraction of the nth substance listed; conditions: 101 kPa, Liquid, Standard Abbe refractometry

CCOC(=O)C(=O)OCC [diethyl ethanedioate] + CC(=O)c1ccccc1
Conditions	mass density, 303.15 K [kg/m3]	mass density, 308.15 K [kg/m3]	mass density, 313.15 K [kg/m3]	refractive index, 303.15 K	refractive index, 308.15 K	refractive index, 313.15 K	viscosity, 303.15 K [mPa·s]	viscosity, 308.15 K [mPa·s]	viscosity, 313.15 K [mPa·s]
[1], x1 = 0.0875	1024.1	1021	1017.4	–	–	–	1.557	1.405	1.308
[1], x1 = 0.1478	1026.7	1023.6	1019.9	–	–	–	1.578	1.418	1.317
[1], x1 = 0.2538	1031.2	1027.9	1024	–	–	–	1.61	1.439	1.333
[1], x1 = 0.3443	1034.9	1031.5	1027.5	–	–	–	1.628	1.454	1.344
[1], x1 = 0.4591	1039.9	1036.2	1032	–	–	–	1.645	1.467	1.355
[1], x1 = 0.5501	1044	1040.1	1035.7	–	–	–	1.655	1.477	1.362
[1], x1 = 0.6601	1049.3	1045.2	1040.2	–	–	–	1.657	1.485	1.366
[1], x1 = 0.7601	1054.3	1049.8	1044.5	–	–	–	1.654	1.487	1.37
[1], x1 = 0.8846	1060.6	1055.6	1049.9	–	–	–	1.648	1.489	1.373
[1], x1 = 0.95	1063.8	1058.5	1052.5	–	–	–	1.635	1.49	1.375
[2], x1 = 0.0875	–	–	–	1.5171	1.5151	1.5133	–	–	–
[2], x1 = 0.1478	–	–	–	1.5087	1.5068	1.5053	–	–	–
[2], x1 = 0.2538	–	–	–	1.4945	1.4928	1.4912	–	–	–
[2], x1 = 0.3443	–	–	–	1.4826	1.4811	1.4796	–	–	–
[2], x1 = 0.4591	–	–	–	1.4685	1.4671	1.4656	–	–	–
[2], x1 = 0.5501	–	–	–	1.4574	1.456	1.4544	–	–	–
[2], x1 = 0.6601	–	–	–	1.4439	1.4424	1.4411	–	–	–
[2], x1 = 0.7601	–	–	–	1.4325	1.4309	1.4293	–	–	–
[2], x1 = 0.8846	–	–	–	1.4187	1.4167	1.4154	–	–	–
[2], x1 = 0.95	–	–	–	1.4117	1.4095	1.4079	–	–	–

CCOC(=O)C(=O)OCC [diethyl ethanedioate] + CCC(=O)CC
Conditions	mass density, 303.15 K [kg/m3]	mass density, 308.15 K [kg/m3]	mass density, 313.15 K [kg/m3]	refractive index, 303.15 K	refractive index, 308.15 K	refractive index, 313.15 K	viscosity, 303.15 K [mPa·s]	viscosity, 308.15 K [mPa·s]	viscosity, 313.15 K [mPa·s]
[1], x1 = 0.0865	834	829.9	825.8	–	–	–	0.485	0.452	0.44
[1], x1 = 0.1436	852	847.8	843.6	–	–	–	0.527	0.491	0.478
[1], x1 = 0.2448	882.5	878.2	873.8	–	–	–	0.61	0.567	0.551
[1], x1 = 0.3389	909.4	905	900.5	–	–	–	0.701	0.65	0.627
[1], x1 = 0.4495	939.4	934.8	930.1	–	–	–	0.818	0.759	0.726
[1], x1 = 0.5325	960.8	956.1	951.2	–	–	–	0.916	0.848	0.808
[1], x1 = 0.6518	990	985.1	979.9	–	–	–	1.071	0.987	0.936
[1], x1 = 0.7587	1014.7	1009.6	1004.2	–	–	–	1.224	1.121	1.061
[1], x1 = 0.8659	1038.2	1032.9	1027.2	–	–	–	1.395	1.274	1.196
[1], x1 = 0.9438	1054.6	1049.1	1043.3	–	–	–	1.525	1.391	1.295
[2], x1 = 0.0865	–	–	–	1.3901	1.3881	1.3861	–	–	–
[2], x1 = 0.1436	–	–	–	1.3916	1.3897	1.3877	–	–	–
[2], x1 = 0.2448	–	–	–	1.3941	1.3924	1.3906	–	–	–
[2], x1 = 0.3389	–	–	–	1.3962	1.3947	1.393	–	–	–
[2], x1 = 0.4495	–	–	–	1.3984	1.3969	1.3954	–	–	–
[2], x1 = 0.5325	–	–	–	1.3999	1.3983	1.3969	–	–	–
[2], x1 = 0.6518	–	–	–	1.4018	1.4	1.3986	–	–	–
[2], x1 = 0.7587	–	–	–	1.4033	1.4014	1.3998	–	–	–
[2], x1 = 0.8659	–	–	–	1.4047	1.4026	1.4008	–	–	–
[2], x1 = 0.9438	–	–	–	1.4056	1.4034	1.4015	–	–	–

CCOC(=O)C(=O)OCC [diethyl ethanedioate] + O=C1CCCC1
Conditions	mass density, 303.15 K [kg/m3]	mass density, 308.15 K [kg/m3]	mass density, 313.15 K [kg/m3]	refractive index, 303.15 K	refractive index, 308.15 K	refractive index, 313.15 K	viscosity, 303.15 K [mPa·s]	viscosity, 308.15 K [mPa·s]	viscosity, 313.15 K [mPa·s]
[1], x1 = 0.0679	950.9	946.1	941.1	–	–	–	1.045	0.96	0.891
[1], x1 = 0.1501	965	960.1	954.9	–	–	–	1.095	0.999	0.925
[1], x1 = 0.2518	981	976	970.6	–	–	–	1.153	1.048	0.968
[1], x1 = 0.3903	1000.6	995.4	989.9	–	–	–	1.233	1.119	1.031
[1], x1 = 0.4511	1008.5	1003.2	997.7	–	–	–	1.265	1.152	1.058
[1], x1 = 0.5509	1020.7	1015.3	1009.7	–	–	–	1.326	1.207	1.107
[1], x1 = 0.6587	1032.9	1027.4	1021.7	–	–	–	1.394	1.269	1.163
[1], x1 = 0.7587	1043.4	1037.9	1032.1	–	–	–	1.458	1.329	1.219
[1], x1 = 0.8755	1054.9	1049.3	1043.3	–	–	–	1.537	1.401	1.288
[1], x1 = 0.961	1062.7	1057	1051	–	–	–	1.596	1.454	1.342
[2], x1 = 0.0679	–	–	–	1.4299	1.4278	1.4262	–	–	–
[2], x1 = 0.1501	–	–	–	1.4264	1.4244	1.4231	–	–	–
[2], x1 = 0.2518	–	–	–	1.4226	1.4207	1.4198	–	–	–
[2], x1 = 0.3903	–	–	–	1.4182	1.4164	1.4158	–	–	–
[2], x1 = 0.4511	–	–	–	1.4164	1.4147	1.4142	–	–	–
[2], x1 = 0.5509	–	–	–	1.4139	1.4122	1.4116	–	–	–
[2], x1 = 0.6587	–	–	–	1.4115	1.4098	1.4089	–	–	–
[2], x1 = 0.7587	–	–	–	1.4098	1.4079	1.4067	–	–	–
[2], x1 = 0.8755	–	–	–	1.408	1.4059	1.4043	–	–	–
[2], x1 = 0.961	–	–	–	1.4068	1.4045	1.4027	–	–	–

CCOC(=O)C(=O)OCC [diethyl ethanedioate] + O=C1CCCCC1
Conditions	mass density, 303.15 K [kg/m3]	mass density, 308.15 K [kg/m3]	mass density, 313.15 K [kg/m3]	refractive index, 303.15 K	refractive index, 308.15 K	refractive index, 313.15 K	viscosity, 303.15 K [mPa·s]	viscosity, 308.15 K [mPa·s]	viscosity, 313.15 K [mPa·s]
[1], x1 = 0.0784	950.2	945.1	940.1	–	–	–	1.777	1.595	1.466
[1], x1 = 0.1495	961	955.8	950.6	–	–	–	1.737	1.556	1.416
[1], x1 = 0.2501	975.4	970.3	964.9	–	–	–	1.682	1.5	1.36
[1], x1 = 0.3443	988.4	983.1	977.7	–	–	–	1.637	1.461	1.325
[1], x1 = 0.4324	1000	994.7	989.2	–	–	–	1.609	1.435	1.304
[1], x1 = 0.5507	1015.1	1009.6	1004	–	–	–	1.584	1.415	1.285
[1], x1 = 0.6755	1030.3	1024.7	1019	–	–	–	1.575	1.404	1.276
[1], x1 = 0.7601	1040.2	1034.5	1028.7	–	–	–	1.581	1.407	1.284
[1], x1 = 0.8756	1053.1	1047.4	1041.4	–	–	–	1.606	1.437	1.329
[1], x1 = 0.9502	1061	1055.3	1049.3	–	–	–	1.62	1.464	1.351
[2], x1 = 0.0784	–	–	–	1.4429	1.4406	1.4388	–	–	–
[2], x1 = 0.1495	–	–	–	1.4399	1.4376	1.4359	–	–	–
[2], x1 = 0.2501	–	–	–	1.4359	1.434	1.4321	–	–	–
[2], x1 = 0.3443	–	–	–	1.4323	1.4307	1.4287	–	–	–
[2], x1 = 0.4324	–	–	–	1.4287	1.4273	1.4252	–	–	–
[2], x1 = 0.5507	–	–	–	1.4239	1.4223	1.4204	–	–	–
[2], x1 = 0.6755	–	–	–	1.4186	1.4168	1.4152	–	–	–
[2], x1 = 0.7601	–	–	–	1.4154	1.4133	1.4116	–	–	–
[2], x1 = 0.8756	–	–	–	1.4108	1.4088	1.4071	–	–	–
[2], x1 = 0.9502	–	–	–	1.4081	1.4059	1.4043	–	–	–
